# Test results from publication PMC4635503, “High-affinity nitrate/nitrite transporters NrtA and NrtB of Aspergillus nidulans exhibit high specificity and different inhibitor sensitivity” (Microbiology, 2015).
# “And” between values parts separate entries of the source, which are not always exact repeats. Equal entries are not always repeated. Where two headings read alike, the source gives them in different places.
# Legend:
# NrtA [1] = molecular target: T1, NrtA (Emericella nidulans, UniProt P22152); conditions: cited from earlier work
# NrtB [2] = conditions: cited from earlier work
# [3] = test system: A. nidulans WT and mutant strains; assay type: cell-based, Aspergillus nidulans; conditions: for growth stunting on solid AMM: up to 100 mM, 1 mM nitrate (or proline) as sole nitrogen source, data not shown
# Experimental: (§1) Fungal growth tests were carried out in standard Petri dishes containing defined Aspergillus minimal medium (AMM) agar ([Cove, 1976]), with sodium nitrate or proline as the sole nitrogen source, at 1 or 10 mM concentration. Strains were tested for inhibition by bicarbonate, formate, oxalate, chlorite, sulphite (all purchased as the sodium salt), chlorate (potassium salt), malonate (acid form) or caesium (chloride salt). Stock aqueous solutions of inhibitors were adjusted to pH 6.5 and prepared immediately before use. It should be noted that at pH 6.5, bicarbonate is in approximately 50 % equilibrium with carbonic acid. […] Cultures were incubated routinely at 37 °C for 48 h, and the growth response was scored.
# (§2) Each treatment was carried out in five replicates. […] As caesium was utilized as a chloride salt, a control for potential inhibition by chloride was assessed, by growth on 100 mM sodium chloride (Fig. 4).
# Unlike chlorate, commercial chemical supplies of chlorite typically contain a relatively high percentage (20 %) of contaminants. […] The pH of this solution was adjusted to 6.5 and aliquots incorporated into solid AMM (with nitrate or proline as the nitrogen source) at final concentrations equivalent to those that would be present in agar medium containing 10 mM chlorite (i.e. 1.56 mM sodium chloride, 0.28 mM sodium chlorate, 0.68 mM sodium hydroxide and 0.17 mM sodium carbonate).
# NrtB [4] = assay type: cell-based, Aspergillus nidulans; conditions: for Nitrate uptake ± SE: nrtA747 (NrtB); for nature of inhibition of nitrate transport (Lineweaver–Burk): NrtB (expressed in nrtA1); for Ki: inhibitor concentration reducing net nitrate uptake rate by 50 % of control
# Experimental: (§3) These were performed on cultures grown in liquid AMM with 5 mM urea as nitrogen source for a total of 6.5 h at 37 °C ([Brownlee & Arst, 1983]). Urea was used as it (i) is a neutral nitrogen source, neither inducing nor repressing nitrate transport, (ii) has been used routinely in the past and (iii) permitted direct comparison with previously published results. […] Transporter activity was induced by the addition of 10 mM sodium nitrate 100 min prior to assay as described previously ([Brownlee & Arst, 1983]). Assays were carried out in triplicate, generally at pH 6.5, on three independently grown cultures for each strain and expressed as nmol nitrate removed from the medium min^ − 1 (mg dried mycelium)^ − 1, as discussed before ([Brownlee & Arst, 1983]; [Kinghorn et al., 2005]; [Unkles et al., 2012]). Both carbonic acid and bicarbonate chemical species can occur at pH 6.5. Thus potential inhibition of nitrate transport by carbonic acid/bicarbonate was tested at pH 6.5 and bicarbonate at pH 8.3.
# (§4) To effectively assess net uptake, it is necessary that any export, i.e. simultaneous transport in the reverse direction, is minimal.
# (§5) Values of K m and V max were calculated by linear regression of Lineweaver–Burk analyses (1/v against 1/s, where v is net uptake and s is substrate concentration). The kinetic values of nitrate transport by the WT and mutants were compared with those from a previous report ([Unkles et al., 2001]). […] Therefore the kinetic values in the absence of inhibitors from the present study were used as control values. Each K i value was determined by regression of the rates of net nitrate uptake transport versus the range of concentrations of a particular inhibitor: linear or nonlinear regression was used, depending on which type provided the highest r ^2 value. Calculated from each regression was the concentration of the inhibitor that reduced net nitrate uptake rate by 50 % of the control (without inhibitor) rate, which was assessed as the K i value. Lineweaver–Burk analyses were carried out to determine the nature of the inhibition of nitrate transport for each inhibitor.
# [5] = test system: nitrate transport by NrtA and NrtB; assay: Net nitrate transport inhibition assays, strain not specified; assay type: cell-based, Aspergillus nidulans; conditions: net nitrate transport inhibition assays (Tables 3 and 4)
# Experimental: as §3, §4
# [6] = test system: A. nidulans double mutant tbl110 (nrtA747 nrtB110, neither transporter); assay: microbe, parasite or virus in culture; assay type: cell-based, Aspergillus nidulans; conditions: T110 (neither transporter)
# Experimental: as §1, §2
# [7] = test system: A. nidulans mutant nrtB110 (functional NrtA); assay: microbe, parasite or virus in culture; assay type: cell-based, Aspergillus nidulans
# Experimental: as §1, §2
# [8] = test system: A. nidulans mutant nrtA1 (functional NrtB); assay: microbe, parasite or virus in culture; assay type: cell-based, Aspergillus nidulans
# Experimental: as §1, §2
# NrtA, NrtB (WT strain) = assay: Net nitrate uptake assay and kinetics, WT strain; assay type: cell-based, Aspergillus nidulans; conditions: mean ± SE; for Ki: WT (NrtA, NrtB), inhibitor concentration reducing net nitrate uptake rate by 50 % of control
# Experimental: as §3, §4, §5
# NrtA [9] = molecular target: T1, NrtA; assay: cell-based; parameters: mutant nrtB110 (expressing a functional NrtA); endogenous in cells; host or cells: Aspergillus nidulans mycelium, knockout strain nrtB110, nitrate-induced; species or system Aspergillus nidulans; conditions: for nature of inhibition of nitrate transport (Lineweaver–Burk): NrtA (expressed in nrtB110)
# Experimental: as §3, §4, §5
# [10] = test system: A. nidulans WT strain (NrtA, NrtB); assay: MIC growth test on solid AMM, WT strain; assay type: cell-based, Aspergillus nidulans
# Experimental: as §1, §2
# A. nidulans WT strain = conditions: ref Wang et al., 2007; cited from earlier work
# [11] = pH 6.5, in presence of the anion, control without anion 2.9 ± 0.1
# [12] = Aspergillus nidulans, 1 mM proline as sole nitrogen source
# [13] = Aspergillus nidulans, 10 mM proline as sole nitrogen source
# [14] = nrtB110 (NrtA), 1 mM nitrate as sole nitrogen source
# [15] = nrtB110 (NrtA), 1 mM proline as sole nitrogen source
# [16] = nrtB110 (NrtA), 10 mM nitrate as sole nitrogen source
# [17] = nrtB110 (NrtA), 10 mM proline as sole nitrogen source
# [18] = Aspergillus nidulans, 10 mM nitrate as sole nitrogen source
# [19] = nrtB110 (NrtA), pH 6.5, in presence of the anion, control without anion 10.6 ± 1.4
# [20] = nitrate transport, nrtA1 (NrtB), no inhibitor, mean ± SE
# [21] = nitrate transport, WT, no inhibitor
# [22] = nitrate transport, nrtB110 (NrtA), no inhibitor, mean ± SE
# [23] = 1 mM proline as sole nitrogen source
# [24] = 10 mM proline as sole nitrogen source
# [25] = 10 mM nitrate as sole nitrogen source
# T1 sequence (P22152 whole entry): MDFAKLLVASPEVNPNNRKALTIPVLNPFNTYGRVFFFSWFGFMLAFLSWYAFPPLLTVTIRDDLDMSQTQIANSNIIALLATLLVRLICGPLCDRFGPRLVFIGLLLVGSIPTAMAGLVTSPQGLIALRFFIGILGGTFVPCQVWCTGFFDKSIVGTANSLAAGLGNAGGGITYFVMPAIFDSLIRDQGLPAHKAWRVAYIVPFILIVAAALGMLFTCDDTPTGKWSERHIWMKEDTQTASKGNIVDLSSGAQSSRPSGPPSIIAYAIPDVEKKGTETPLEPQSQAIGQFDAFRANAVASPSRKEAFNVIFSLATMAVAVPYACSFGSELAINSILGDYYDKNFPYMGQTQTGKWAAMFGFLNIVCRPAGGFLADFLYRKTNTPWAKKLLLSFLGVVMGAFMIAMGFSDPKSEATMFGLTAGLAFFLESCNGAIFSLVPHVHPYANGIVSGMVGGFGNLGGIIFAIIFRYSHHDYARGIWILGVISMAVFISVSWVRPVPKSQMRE
compound,measurement,setting,value
O=NO [nitrite],K m for nitrite,"NrtA [1]; ref Wang et al., 2008",0.016 mM
same,K m for nitrite,"NrtB [2]; ref Wang et al., 2008",0.011 mM
[Cl-].[Na+] [sodium chloride],effect on growth,"[3]; 100 mM sodium chloride, control for chloride",no effect on growth
"O=C(O)CC(=O)O [Malonate, malonate]",Nitrate uptake ± SE,NrtB [4]; [11],2.7 ± 0.2 nmol NO3 min^− 1 mg^− 1
same,inhibition of nitrate transport / uptake,[5],did not inhibit growth or nitrate uptake
same,growth stunting on solid AMM,[3],no convincing phenotypic evidence of growth stunting
"[Cs+] [Caesium, caesium]",nature of inhibition of nitrate transport (Lineweaver–Burk),NrtB [4],uncompetitive
same,nature of inhibition of nitrate transport (Lineweaver–Burk),NrtB [4]; listed as caesium,uncompetitive inhibition
same,Ki,"NrtB [4]; nrtA1 (NrtB), mean ± SE",2.6 ± 0.02 mM
same,Ki,"NrtB [4]; nrtA1 (NrtB), mean ± SE, listed as caesium",~3 mM
same,MIC,[6]; [12],100 mM
same,MIC,[6]; [13],> 100 mM
same,MIC,[7]; Aspergillus nidulans,> 100 mM
same,MIC,[7]; [14],>100 mM
same,MIC,[7]; [15],>100 mM
same,MIC,[7]; [16],>100 mM
same,MIC,[7]; [17],>100 mM
same,MIC,"[8]; Aspergillus nidulans, 1 mM nitrate as sole nitrogen source",40 mM
same,MIC,[8]; [12],80 mM
same,MIC,[8]; [18],30 mM
same,MIC,[8]; [13],60 mM
same,Ki,"NrtA, NrtB (WT strain)",45.1 ± 6.1 mM
same,Ki,"NrtA, NrtB (WT strain); listed as caesium",45 mM
same,Ki,"NrtA [9]; K i, nrtB110 (NrtA), inhibitor concentration reducing net nitrate uptake rate by 50 % of control, mean ± SE",55 mM and 54.8 mM
same,nature of inhibition of nitrate transport (Lineweaver–Burk),NrtA [9],non-competitive inhibitor
same,nature of inhibition of nitrate transport (Lineweaver–Burk),NrtA [9]; listed as caesium,non-competitive inhibition
same,MIC,"[10]; Aspergillus nidulans, 1 mM nitrate as sole nitrogen source, solid AMM, 37 °C",100 mM
same,MIC,[10]; [12],80 mM
same,MIC,[10]; [18],> 100 mM
same,MIC,[10]; [13],60 mM
Carbonic acid/bicarbonate,Nitrate uptake ± SE,NrtB [4]; [11],2.7 ± 0.1 nmol NO3 min^− 1 mg^− 1
same,Nitrate uptake ± SE,NrtA [9]; [19],11.1 ± 0.4 nmol NO3 min^− 1 mg^− 1
same,growth stunting on solid AMM,[3],no convincing phenotypic evidence of growth stunting
O=CO [Formate],Nitrate uptake ± SE,NrtB [4]; [11],2.7 ± 0.1 nmol NO3 min^− 1 mg^− 1
same,Nitrate uptake ± SE,NrtA [9]; [19],8.1 ± 0.4 nmol NO3 min^− 1 mg^− 1
same,inhibition of nitrate transport / uptake,[5],did not inhibit growth or nitrate uptake
same,growth stunting on solid AMM,[3],no convincing phenotypic evidence of growth stunting
O=[N+]([O-])O [nitrate],rate of nitrate efflux as % of influx,A. nidulans WT strain,8%
same,K m,NrtB [4]; [20],0.0114 ± 0.0024 mM
same,V max,NrtB [4]; [20],3.6 ± 0.2
same,K m for nitrate,"NrtA [1]; ref Unkles et al., 2001",0.096 mM
same,K m,"NrtA, NrtB (WT strain); [21]",0.0571 ± 0.0026 mM
same,V max,"NrtA, NrtB (WT strain); [21]",14.2 ± 0.8
same,K m,NrtA [9]; [22],0.041 ± 0.0048 mM
same,V max,NrtA [9]; [22],9.1 ± 0.8
same,K m for nitrate,"NrtB [2]; ref Unkles et al., 2001",0.011 mM
"O=C(O)O [Bicarbonate, bicarbonate]",Nitrate uptake ± SE,"NrtB [4]; pH 8.3, in presence of the anion, control without anion 1.9 ± 0.7",1.9 ± 0.3 nmol NO3 min^− 1 mg^− 1
same,Nitrate uptake ± SE,"NrtA [9]; nrtB110 (NrtA), pH 8.3, in presence of the anion, control without anion 0.7 ± 0.4",0.5 ± 0.7 nmol NO3 min^− 1 mg^− 1
same,inhibition of nitrate transport / uptake,[5],did not inhibit growth or nitrate uptake
same,growth stunting on solid AMM,[3],no convincing phenotypic evidence of growth stunting
O=C(O)C(=O)O [Oxalate],Nitrate uptake ± SE,NrtB [4]; [11],2.4 ± 0.1 nmol NO3 min^− 1 mg^− 1
same,Nitrate uptake ± SE,NrtA [9]; [19],9.7 ± 0.4 nmol NO3 min^− 1 mg^− 1
same,inhibition of nitrate transport / uptake,[5],did not inhibit growth or nitrate uptake
same,growth stunting on solid AMM,[3],no convincing phenotypic evidence of growth stunting
"O=S(O)O [Sulphite, sulphite]",MIC,[6]; [23],15 mM
same,MIC,[6]; [24],>25 mM
same,MIC,[7]; [14],15 mM
same,MIC,[7]; [15],15 mM
same,MIC,[7]; [16],15 mM
same,MIC,[7]; [17],>25 mM
same,MIC,[8]; 1 mM nitrate as sole nitrogen source,15 mM
same,MIC,[8]; [23],15 mM
same,MIC,[8]; [25],15 mM
same,MIC,[8]; [24],>25 mM
same,concentration at which growth ceased,[3]; media with 10 mM nitrate,15 mM
same,concentration at which growth ceased,[3]; media with 10 mM proline,> 25 mM
same,concentration at which growth ceased,[3]; media with either 1 mM nitrate or proline,15 mM
same,MIC,"[10]; 1 mM nitrate as sole nitrogen source, solid AMM, 37 °C",15 mM
same,MIC,[10]; [23],15 mM
same,MIC,[10]; [25],15 mM
same,MIC,[10]; [24],>25 mM
